Test results as given in patent US10626103B2, “Inhibitor of lysine specific demethylase-1” (CELGENE QUANTICEL RESEARCH, INC., priority 2014, dated 2020).

What was measured:
full-length human LSD1 = full-length human LSD1 (Homo sapiens (Human), UniProt O60341); assay: In vitro enzyme inhibition assay LSD-1 (TR-FRET); assay type: biochemical; conditions: H3K4me1-biotin peptide
Experimental: This assay determines the ability of a test compound to inhibit LSD1 demethylase activity.
The enzymatic assay of LSD1 activity is based on Time Resolved-Fluorescence Resonance Energy Transfer (TR-FRET) detection.
Plates were read by EnVision Multilabel Reader in TR-FRET mode (excitation at 320 nm, emission at 615 nm and 665 nm) after 1 hour incubation at room temperature.
The ability of the compounds disclosed herein to inhibit LSD1 activity was quantified and the respective IC50 value was determined.

[1] = tested on: CD11b expression in THP-1 (AML) cells; assay: LSD1 CD11b cellular assay (flow cytometry); assay type: cell-based; conditions: Homo sapiens, 96 h, THP-1 cells, 4 days
Experimental: To analyze LSD1 inhibitor efficacy in cells, a CDL11b flow cytometry assay was performed. LSD1 inhibition induces CD11b expression in THP-1 (AML) cells which can be measured by flow cytometry. […] LSD 1 test compounds were serially diluted in DMSO. The dilutions were added to each well accordingly to a final concentration of 0.2% DMSO. The cells were incubated at 37 degrees Celsius in 5% CO2 for 4 days. 250 μL of each well was transferred to a well in a 96 well round bottom plate. The plate was centrifuged at 1200 rpm at 4 degrees Celsius in a Beckman Coulter Alegra 6KR centrifuge for 5 minutes. The media was removed leaving the cells at the bottom of the wells. The cells were washed in 100 μL cold HBSS (Hank's Balanced Salt Solution) plus 2% BSA (Bovine Serum Albumin) solution and centrifuged at 1200 rpm at 4 degrees Celsius for 5 minutes. The wash was removed. […] The cells were centrifuged and washed two times in 100 μl HBSS plus 2% BSA. After the final spin the cells were resuspended in 100 μL HBSS plus 2% BSA containing 1 ug/mL DAPI (4′,6-diamidino-2-phenylindole). The cells were then analyzed by flow cytometry in a BD FACSAria machine. Cells were analyzed for CD11b expression. The percent of CD11b expressing cells for each inhibitor concentration was used to determine an IC50 curve for each compound analyzed.

Compound | IC50 (full-length human LSD1) [nM] | IC50 [1] [nM]
COc1ccc(-n2c(-c3ccc(C#N)c(F)c3)nc(C(=O)N3CCC[C@@H](N)C3)c2Cl)cc1F [Example 66, 4-[4-[(3R)-3-Aminopiperidine-1-carbonyl]-5-chloro-1-(3-fluoro-4-methoxyphenyl)imidazol-2-yl]-2-fluorobenzonitrile] | < 100 | < 100
COCCn1c(C(=O)N2CCC[C@@H](N)C2)cc(-c2ccc(C#N)c(F)c2)c1-c1ccc2nn(C)cc2c1 [Example 36, (R)-4-(5-(3-aminopiperidine-1-carbonyl)-1-(2-methoxyethyl)-2-(2-methyl-2H-indazol-5-yl)-1H-pyrrol-3-yl)-2-fluorobenzonitrile] | < 100 | < 100
N#Cc1ccc(-c2nc(C(=O)N3CC[C@H](N)C3)c(Cl)n2-c2ccc(C3CC3)nc2)cc1F [Example 81, 4-[4-[(3S)-3-Aminopyrrolidine-1-carbonyl]-5-chloro-1-(6-cyclopropylpyridin-3-yl)imidazol-2-yl]-2-fluorobenzonitrile] | < 100 | < 100
COc1ccc(-n2c(-c3ccc(C#N)c(F)c3)nc(C(=O)N[C@H]3CCCNC3)c2Cl)cc1F [Example 85, 5-Chloro-2-(4-cyano-3-fluorophenyl)-1-(3-fluoro-4-methoxyphenyl)-N-[(3S)-piperidin-3-yl]imidazole-4-carboxamide] | < 100 | 100 to 1000
CN[C@H]1CCN(C(=O)c2nc(-c3ccc(C#N)c(F)c3)n(-c3ccc(OC)cc3)c2C)C1 [Example 69, 2-Fluoro-4-[1-(4-methoxyphenyl)-5-methyl-4-[(3S)-3-(methylamino)pyrrolidine-1-carbonyl]imidazol-2-yl]benzonitrile] | < 100 | < 100
COc1ccc(-c2c(-c3ccc(C#N)cc3)cc(C(=O)N3CCC[C@@H](N)C3)n2CCO)cc1 [Example 7, 4-[5-(3-(R)-amino-piperidine-1-carbonyl)-1-(2-hydroxy-ethyl)-2-(4-methoxy-phenyl)-1H-pyrrol-3-yl]-benzonitrile] | < 100 | < 100
CN[C@H]1CCN(C(=O)c2nc(-c3ccc(C#N)c(F)c3)n(-c3ccc4nn(C)c(C)c4c3)c2C)C1 [Example 103, 4-[1-(2,3-Dimethylindazol-5-yl)-5-methyl-4-[(3S)-3-(methylamino)pyrrolidine-1-carbonyl]imidazol-2-yl]-2-fluorobenzonitrile] | < 100 | < 100
COc1ccc(-n2cc(C(=O)N3CC[C@H](N)C3)nc2-c2ccc(C#N)c(F)c2)cc1F [Example 20, 4-[4-[(3S)-3-aminopyrrolidine-1-carbonyl]-1-(3-fluoro-4-methoxyphenyl)imidazol-2-yl]-2-fluorobenzonitrile] | < 100 | < 100
CN[C@@H]1CCCN(C(=O)c2cn(-c3ccc(OC)cc3)c(-c3ccc(C#N)c(F)c3)n2)C1 [Example 72, 2-Fluoro-4-[1-(4-methoxyphenyl)-4-[(3R)-3-(methylamino)piperidine-1-carbonyl]imidazol-2-yl]benzonitrile] | < 100 | < 100
Cc1c(C(=O)N2CC[C@H](N)C2)nc(-c2ccc(C#N)c(F)c2)n1-c1ccc(C2CC2)nc1 [Example 79, 4-[4-[(3S)-3-Aminopyrrolidine-1-carbonyl]-1-(6-cyclopropylpyridin-3-yl)-5-methylimidazol-2-yl]-2-fluorobenzonitrile] | < 100 | < 100
Cn1nc2ccc(-n3cc(C(=O)N[C@@H]4CCCNC4)nc3-c3ccc(C#N)c(F)c3)cc2c1Cl [Example 114, 1-(3-Chloro-2-methylindazol-5-yl)-2-(4-cyano-3-fluorophenyl)-N-[(3R)-piperidin-3-yl]imidazole-4-carboxamide] | < 100 | < 100
Cc1c(C(=O)N2CCC(N)CC2)nc(-c2ccc(C#N)c(F)c2)n1-c1ccc2nn(C)cc2c1 [Example 43, 4-[4-(4-Aminopiperidine-1-carbonyl)-5-methyl-1-(2-methylindazol-5-yl)imidazol-2-yl]-2-fluorobenzonitrile] | < 100 | 100 to 1000
CN[C@H]1CCN(C(=O)c2cn(-c3ccc(OC)c(F)c3)c(-c3ccc(C#N)c(F)c3)n2)C1 [Example 65, 2-Fluoro-4-[1-(3-fluoro-4-methoxyphenyl)-4-[(3S)-3-(methylamino)pyrrolidine-1-carbonyl]imidazol-2-yl]benzonitrile] | < 100 | < 100
Cn1cc2cc(-c3c(-c4ccc(C#N)c(F)c4)cc(C(=O)N4CCC[C@@H](N)C4)n3CCCO)ccc2n1 [Example 34, (R)-4-(5-(3-aminopiperidine-1-carbonyl)-1-(3-hydroxypropyl)-2-(2-methyl-2H-indazol-5-yl)-1H-pyrrol-3-yl)-2-fluorobenzonitrile] | < 100 | < 100
CN[C@H]1CCN(C(=O)c2nc(-c3ccc(C#N)c(F)c3)n(-c3cc4c(Cl)n(C)nc4cc3F)c2C)C1 [Example 111, 4-[1-(3-Chloro-6-fluoro-2-methylindazol-5-yl)-5-methyl-4-[(3S)-3-(methylamino)pyrrolidine-1-carbonyl]imidazol-2-yl]-2-fluorobenzonitrile] | < 100 | < 100

Further lines, results first:

IC50 (full-length human LSD1) [nM] | IC50 [1] [nM] | Compound
< 100 | < 100 | Cn1cc2cc(-n3c(-c4ccc(C#N)c(F)c4)nc(C(=O)N4CCC[C@@H](N)C4)c3Cl)ccc2n1 [Example 75, 4-[4-[(3R)-3-Aminopiperidine-1-carbonyl]-5-chloro-1-(2-methylindazol-5-yl)imidazol-2-yl]-2-fluorobenzonitrile]
< 100 | < 100 | CN[C@@H]1CCCN(C(=O)c2cn(-c3ccc4nn(C)c(Cl)c4c3)c(-c3ccc(C#N)c(F)c3)n2)C1 [Example 115, 4-[1-(3-Chloro-2-methylindazol-5-yl)-4-[(3R)-3-(methylamino)piperidine-1-carbonyl]imidazol-2-yl]-2-fluorobenzonitrile]
< 100 | < 100 | Cc1c(C(=O)N2CC[C@H](N(C)C)C2)nc(-c2ccc(C#N)c(F)c2)n1-c1cc2c(Cl)n(C)nc2cc1F [Example 110, 4-[1-(3-Chloro-6-fluoro-2-methylindazol-5-yl)-4-[(3S)-3-(dimethylamino)pyrrolidine-1-carbonyl]-5-methylimidazol-2-yl]-2-fluorobenzonitrile]
< 100 | < 100 | COc1ccc(-c2c(-c3ccc(C#N)c(F)c3)cc(C(=O)N3CCC[C@@H](N)C3)n2CCO)cc1 [Example 8, 4-[5-(3-(R)-amino-piperidine-1-carbonyl)-1-(2-hydroxy-ethyl)-2-(4-methoxy-phenyl)-1H-pyrrol-3-yl]-2-fluoro-benzonitrile]
< 100 | < 100 | CN[C@H]1CCN(C(=O)c2cn(-c3ccc(OC)cc3)c(-c3ccc(C#N)c(F)c3)n2)C1 [Example 71, 2-Fluoro-4-[1-(4-methoxyphenyl)-4-[(3S)-3-(methylamino)pyrrolidine-1-carbonyl]imidazol-2-yl]benzonitrile]
< 100 | < 100 | Cn1cc2cc(-c3c(-c4ccc(C#N)c(F)c4)cc(C(=O)N4CCC[C@@H](N)C4)n3C[C@@H](O)CO)ccc2n1 [Example 38, 4-(5-((R)-3-aminopiperidine-1-carbonyl)-1-((R)-2,3-dihydroxypropyl)-2-(2-methyl-2H-indazol-5-yl)-1H-pyrrol-3-yl)-2-fluorobenzonitrile]
< 100 | < 100 | Cn1nc2ccc(-n3c(-c4ccc(C#N)c(F)c4)nc(C(=O)N4CCC[C@@H](N)C4)c3F)cc2c1Cl [Example 61, 4-[4-[(3R)-3-Aminopiperidine-1-carbonyl]-1-(3-chloro-2-methylindazol-5-yl)-5-fluoroimidazol-2-yl]-2-fluorobenzonitrile]
< 100 | < 100 | Cc1ccc(-c2c(-c3ccc(C#N)cc3)cc(C(=O)N3CCC[C@@H](N)C3)n2CCO)cc1 [Example 3, 4-[5-(3-(R)-amino-piperidine-1-carbonyl)-1-(2-hydroxy-ethyl)-2-p-tolyl-1H-pyrrol-3-yl]-benzonitrile]
< 100 | < 100 | CN(C)[C@H]1CCN(C(=O)c2cn(-c3ccc4nn(C)c(Cl)c4c3)c(-c3ccc(C#N)c(F)c3)n2)C1 [Example 57, 4-[1-(3-Chloro-2-methylindazol-5-yl)-4-[(3S)-3-(dimethylamino)pyrrolidine-1-carbonyl]imidazol-2-yl]-2-fluorobenzonitrile]
< 100 | < 100 | Cc1c(C(=O)N(C)CCN)nc(-c2ccc(C#N)c(F)c2)n1-c1ccc2nn(C)cc2c1 [Example 44, N-(2-Aminoethyl)-2-(4-cyano-3-fluorophenyl)-N,5-dimethyl-1-(2-methylindazol-5-yl)imidazole-4-carboxamide]
